Reference: patent US9801404B2, “IGF-1 production-promoting agent” (MORINAGA MILK INDUSTRY CO., LTD., priority 2012, dated 2017)
Several values for one entry are separate records, joined by “and”; a condition that tells them apart may be missing. Identical values can stand only once.

Assays:
[1] = test system: IGF-1 mRNA in gastrocnemius; assay: Expression of IGF-1 mRNA in gastrocnemius at recovery from tail-suspension muscular atrophy; type: in vivo, C57BL/6J mice; conditions: mice after tail suspension; feed with 0.07 mass % nobiletin for 3 days
Excerpt: (§1) Male C57BL/6J mice (10-week old) were preliminarily bred for one week, and divided into six groups (control group (Cont), standard feed administration after tail suspension group (Fix), Citrus depressa extract administration after tail suspension group (Fix+SE), polymethoxyflavonoid administration after tail suspension group (Fix+PMF), nobiletin administration after tail suspension group (Fix+NOB), and tangeretin administration after tail suspension group (Fix+TAN), n=8 for the Cont, Fix, Fix+SE, Fix+PMF, Fix+NOB, and Fix+TAN groups).
(§2) After the preliminary breeding, muscular atrophy was induced in the mice of the Fix and Fix+SE groups by tail suspension for two weeks. […]
On day 4 after the change of the feed, the mice were dissected, and the serum IGF-1 concentration, expression of follistatin mRNA in the gastrocnemius, expression of IGF-1 mRNA in the gastrocnemius, and phosphorylation ratio (β+γ) of p70S6K1 in the gastrocnemius were evaluated.
(§3) The serum IGF-1 concentration was measured in the same manner as that used in Example 1. The expression of follistatin mRNA in the gastrocnemius was measured in the same manner as that used in Example 1, except that the hind leg gastrocnemius was extracted from each […], and Assay ID Mm00514982_ml (Applied Biosystems) was used as the primer. […]

[2] = test system: p70S6K1; assay: Phosphorylation ratio of p70S6K1 in gastrocnemius at recovery from tail-suspension muscular atrophy; type: in vivo, C57BL/6J mice; conditions: mice after tail suspension; feed with 0.04 mass % tangeretin for 3 days
Excerpt: as §1, §2
On day 4 after the change of the feed, the mice were dissected, and the serum IGF-1 concentration, expression of follistatin mRNA in the gastrocnemius, expression of IGF-1 mRNA in the gastrocnemius, and phosphorylation ratio (β+γ) of p70S6K1 in the gastrocnemius were evaluated. […]
as §3

SMILES	Expression of IGF-1 mRNA in gastrocnemius (AU) [1]	Expression of IGF-1 mRNA in gastrocnemius, Fix+NOB group compared with the Fix group [1] [%]	Phosphorylation ratio of p70S6K1, Fix+TAN group compared with the Fix group [2] [%]	Phosphorylation ratio of p70S6K1 in gastrocnemius (β + γ) (%) [2]
COc1ccc(-c2cc(=O)c3c(OC)c(OC)c(OC)c(OC)c3o2)cc1OC [NOB, nobiletin]	1.75±0.40 AU and 1.75 AU	107		
COc1ccc(-c2cc(=O)c3c(OC)c(OC)c(OC)c(OC)c3o2)cc1 [TAN, tangeretin]			112	47.8±11.8% and 47.8%
